Data from patent US5273989A, “3,5-disubstituted 2-isoxazolines and isoxazoles, agents containing them and their use” (Hoechst Aktiengesellschaft, priority 1990, dated 1993).
Where a name gives a salt, the structure may show the parent alone. Read-outs that look alike come from different tables or passages of the source.

Experiments:
[1] = test system: NMDA-stimulated 3H-acetylcholine release, striatum sections; test: Inhibition of NMDA-stimulated 3H-acetylcholine release from striatum sections of the rat brain; assay type: cell-based
Procedure: 2. Inhibition of ^3 H-acetylcholine release from striatum sections of the rat brain
Test principle: For the test, fresh striatum sections from rat brain were rinsed with buffer solution in a special chamber and the release of the tritium-labeled acetylcholine was measured after stimulation with NMDA. Preparations having NMDA-antagonist action inhibit acetylcholine release.
Experimental protocol: The superfusion experiments were carried out by the method of Wichman et al. (Naunyn-Schmied. Arch. Pharmacol., 338 (1988), 623-631). Rat brain sections, 0.5 mm thick, were preincubated for 30 min in 2 ml of incubation medium which contains 0.1 μmol/l of ^3 H-choline having a specific activity of 80 Ci/mmol. In each of 6 superfusion chambers, a section was transferred and superfused for 90 min at a rate of 1.5 ml/min. 2 min fraction of the superfusate were continuously collected. Each section was superfused twice with 25 μmol/l of NMDA of two minutes each time in order to stimulate the release of acetylcholine. The first stimulus (S1) takes place between the 54th and the 56th minute and the 2nd stimulus (S2) between the 76th and 78th minute. The incubation medium contained, in mmol/l: NaCl 118, KCl 4.8, CaCl2 1.2, MgSO4 1.2, NaHCO3 25, KH2 PO4 1.2 and glucose 10. The medium was saturated with Carbogen at 37° C. The pH was adjusted to 7.4 NMDA and the novel preparations to be tested were dissolved in superfusion medium. The superfusion was carried out using Mg^2+ -free medium. Tritium from the dissolved sections and from the superfusate was determined by liquid scintillation counting using a Packard® 1900 CA (Frankfurt) at a 50% efficiency.
Calculation of the Results
Basal release and NMDA-stimulated release for S1 and S2 were expressed in %/min of each fraction (Limberger et al, Naunyn Schmied. Arch. Pharmacol. 339 (1988), 53-61).
The value for the stimulated release S2 /S1 was calculated for the control as 0.69±0.09. The value decreases if a substance, such as, for example, the NMDA receptor antagonist CPP (3-(+)-2-carboxypiperazin-4-ylpropyl-1-phosphonic acid) known from the literature inhibited the NMDA-stimulated release. The inhibition of the stimulated release by preparations was calculated in percent, relative to the control value, and is indicated in Table 4.

[2] = test system: high affinity 3H-D-aspartate absorption, synaptic vesicles (synaptosomes) from rat cortex; test: "High affinity" absorption of 3H-aspartate in a vesicle preparation from rat brain; assay type: biochemical; conditions: relative to control values (100%)
Procedure: 1. "High affinity" absorption of ^3 H-aspartate in a vesicle preparation from rat brain.
Test principle: Fresh synaptic vesicles (synaptosomes) from rat cortex are incubated with buffer solution and ^3 H-D-aspartate and ^3 H-D-aspartate in the vesicles is measured. Preparations which in comparison to control synaptosomes increase the high affinity ^3 H-D-aspartate absorption and those which prevent the loss of ^3 H-D-aspartate by reliberation are regarded as particularly interesting.
Experimental protocol: The experiments for ^3 H-D-aspartate absorption were carried out by the method of Anand et al. (Biochem. Pharmacol., 35 (1986), 1055-1057). The synaptic vesicles were dissected out of cerebral cortex from male Sprague-Dawley rats. The preparations were tested at four concentrations as double samples in parallel with control samples containing buffer. The incubation medium (pH 7.4) contains: 1.2 mM KH2 PO4, 5 mM KCl, 5 mM pyruvate, 1.2 mM glucose, 1.2 mM MgCl2, 114 mM NaCl, 25 mM NaHCO3. For the non-specific ^3 H-D-aspartate absorption, NaCl was replaced by 114 mM choline chloride and NaHCO3 by 25 mM KHCO3. An aliquot of the vesicle suspension (about 25 μg/ml of test solution) was added to the test sample which was temperature controlled at 37° C. and aerated with Carbogen (5% CO2, 95% O2) and preincubated for 2 minutes. The three minutes incubation for the amino acid absorption was started by addition of 50 μl of ^3 H-D-aspartate (specific activity 25 Ci/mmol, 10 pmol/ml of test solution). The vesicles were separated from the incubation medium by filtration and additional washing of the adhering labeled amino acids using a Titertek cell harvester (Flow Laboratories, Meckenheim). The ^3 H-D-aspartate absorption was measured by means of a liquid scintillation counter (Canberra-Packard, Model 1500, Frankfurt).
The preparation activity is indicated in percent of the specific ^3 H-D-aspartate absorption, relative to control values (100%), in Table 3. Adenosine triphosphate (ATP) was used for comparison as the standard substance (see Table 3) and at 1 mM caused a 35% increase in the ^3 H-D-aspartate absorption.

[3] = test system: NMDA-induced cramps; test: Inhibition of NMDA-induced cramps in the mouse; assay type: in vivo; conditions: po, 1 h
Procedure: 4. Inhibition of NMDA-induced-cramps in the mouse
The examples listed below show neuroprotective activity in that they antagonize the cramps induced by NMDA (N-methyl-(D)-aspartate). To this end, intravenous injections of 20-30 mg/kg of NMDA are carried out on a male NMRI (Naval Medical Research Institute) mice of 22-24 g body weight, which leads to stereotypes, clonic cramps and in the majority of cases to mortality. In order to investigate an NMDA-antagonist activity of the test substances, they are administered orally one hour before NMDA. The animals are then observed for the abovementioned symptoms for up to 60 min. The number of animals with clonic cramps and the incidence of mortality, expressed in percent change compared to the control group, is regarded as the evaluation criterion.

[4] = Toxicity (LD50) in the mouse; conditions: in vivo, iv
Text: As the examples investigated show considerable differences in toxicity compared to the standard substances, the LD50 values are also listed in Table 6,

[5] = test system: CA1 pyramidal cells of the hippocampus after forebrain ischemia; test: Neuroprotection after forebrain ischemia in the gerbil; conditions: 15 minutes before ischemia; for Cell necroses (% change): histopathological score CA1, treated versus control group; for Behavior score (% change): treated versus control group
Procedure: A 5-minutes' ischemia of the forebrain with subsequent recirculation is produced in 20 male Mongolian gerbils under halothane anesthesia by bilateral closure of the corotid artery by means of aneurysm clips. 7 days later, the animals are decapitated under halothane anesthesia, the brains are fixed by immersion in Carnoy solution and the extent of neuron damage in the CA1 region of the hippocampus is determined "blind" with the aid of a 5-stage histopathological score. The test substance is administered intraperitoneally or orally 15 minutes before ischemia to each group of 10 gerbils. One ischemic control group, also of 10 animals, is treated with the respective solvents per test substance.

[6] = preparation concentration 10 μM, 25 μmol/l NMDA stimulus, relative to control S2/S1, read-out: Inhibition of 3H-acetylcholine release from striatum sections, Inhibition (%)
[7] = preparation concentration 100 μM
[8] = preparation concentration 500 μM
[9] = 50 mg/kg p.o., one hour before NMDA i.v., change compared to control group, read-out: Inhibition of convulsions
[10] = read-out: Inhibition of mortality
[11] = read-out: Inhibition of 3H-acetylcholine release from striatum sections, Inhibition (%)

CC(C)[C@H]1CC[C@H](C)C[C@@H]1OC(=O)CCc1cc(CN)on1 [Example 7, (+)-menthyl 5-aminomethylisoxazole-3-propionate toluene-4-sulfonate]
inhibition at 10 µM [1, 6]: 28%

COC(=O)CCc1cc(CNC(=O)[C@@H](N)Cc2ccccc2)on1.Cl [Example 22, Methyl 5-(L-phenylalanylamino)methylisoxazole-3-propionate hydrochloride]
Stimulation of the 3H-D-aspartate absorption, Stimulation (%) [2, 7]: 23% | inhibition at 10 µM [1, 6]: 15%

NCc1cc(C(=O)O)no1 [Example 1, 3-Carboxy-5-aminomethylisoxazole]
Stimulation of the 3H-D-aspartate absorption, Stimulation (%) [2, 8]: 15% | inhibition in vivo at 63 mg/kg ([3]; 63 mg/kg p.o., one hour before NMDA i.v., change compared to control group, read-out: Inhibition of convulsions): 50% | inhibition at 10 µM [1, 6]: 13% | LD50 [4]: > 200 mg/kg

CC(C)[C@H]1CC[C@H](C)C[C@@H]1OC(=O)CCc1cc(CNC(=O)[C@@H](N)Cc2ccccc2)on1 [Example 20, (+)-Menthyl 5-(L-phenylalanylamino)methylisoxazole-3propionate hydrochloride]
inhibition in vivo at 50 mg/kg [3, 9]: 10% | inhibition in vivo at 50 mg/kg [3, 10]: 100% | inhibition at 10 µM [1, 6]: 18% | LD50 [4]: 25 to 50 mg/kg

CC(C)[C@@H]1CC[C@@H](C)C[C@H]1OC(=O)CCc1cc(CN)on1 [Example 8, (-)-menthyl 5-aminomethylisoxazole-3-propionate toluene-4-sulfonate]
Stimulation of the 3H-D-aspartate absorption, Stimulation (%) ([2]; preparation concentration 10 μM): 13% | inhibition in vivo at 50 mg/kg [3, 9]: 70% | inhibition in vivo at 50 mg/kg [3, 10]: 100% | inhibition at 10 µM [1, 6]: 30% | LD50 [4]: 50 to 100 mg/kg | Cell necroses (% change) ([5]; 50 mg/kg p.o.): -46 % change | Behavior score (% change) ([5]; 50 mg/kg p.o.): 0 % change

O=C(O)CCc1cc(CO)on1 [Example 59, 5-Hydroxylmethyl-isoxazole-3-propionate sodium salt]
inhibition at 10 µM [1, 11]: 26%

CC(C)[C@@H]1CC[C@@H](C)C[C@H]1OC(=O)CCc1cc(C[N+](C)(C)C)on1 [Example 18, (-)-Menthyl 5-trimethylammoniomethylisoxazole-3-propionate iodide]
Stimulation of the 3H-D-aspartate absorption, Stimulation (%) [2, 7]: 46% | inhibition at 10 µM [1, 6]: 22% | Cell necroses (% change) ([5]; 50 mg/kg p.o.): -23 % change | Behavior score (% change) ([5]; 50 mg/kg p.o.): +15 % change

COC(=O)CCC1CC(CN)=NO1 (centres unmarked) [Example 34, Methyl 3-aminomethyl-2-isoxazoline-5-propionate toluene-4-sulfonate]
inhibition at 10 µM [1, 11]: 9%

O=C(O)C1=NOC(C(=O)O)C1 (centres unmarked) [Example 56, 3,5-dicarboxyl-2-isoxazoline]
Stimulation of the 3H-D-aspartate absorption, Stimulation (%) [2, 8]: 17% | inhibition at 10 µM [1, 6]: 11%

O=C(O)CCC1=NOC(c2ccccn2)C1 (centres unmarked) [Example 33, 3-(2-Carboxyethyl)-5-(2-pyridyl)-2-isoxazoline]
inhibition at 10 µM [1, 6]: 26%

NCc1cc(CCC(=O)O)no1 [Example 12, 5-Aminomethylisoxazole-3-propionic acid]
Stimulation of the 3H-D-aspartate absorption, Stimulation (%) [2, 8]: 17% | inhibition in vivo at 50 mg/kg [3, 9]: 45% | inhibition in vivo at 50 mg/kg [3, 10]: 60% | LD50 [4]: > 100 mg/kg | Cell necroses (% change) ([5]; 10 mg/kg i.p.): -32 % change | Behavior score (% change) ([5]; 10 mg/kg i.p.): 0 % change | Cell necroses (% change) ([5]; 50 mg/kg p.o.): -14 % change | Behavior score (% change) ([5]; 50 mg/kg p.o.): 0 % change
